According to US20260317370A1, “METHOD OF DEPROTECTING AT LEAST ONE D-AMINO ACID AND/OR D-AMINO ACID DERIVATIVE PROTECTED FUNCTIONAL GROUP” (Martin-Luther-Universität Halle-Wittenberg, priority 2023, published 2026):
Where a name gives a salt, the structure may show the parent alone.

What was measured:
Assay in all cases: additive influence on activity of D-stereospecific hydrolytic enzyme
Format in all cases: biochemical
Details in all cases: role: inhibitor (additive); substrate Abz-AAfFAAK(DNP)-OH
[1] = biological target: T1, D-stereospecific hydrolytic enzyme, SEQ ID No. 4 (Bacillus cereus, UniProt P94288)
T1 construct: initiator Met form is 4A; E. coli, purified by ion exchange and gel filtration
Procedure: (§1) In further experiments, the hydrolysis reaction using D-stereospecific hydrolytic enzymes with SEQ ID No. 4, No. 6, No. 7, No. 8, No. 9 was carried out with internally quenched fluorogenic substrates (IQFS) (Abz-AAX/xaaFAAK(DNP)-OH) (Abz=2-aminobenzoic acid, DNP=2,4-dinitrophenol). By cleavage of the IQFS, a fluorescence signal is released and can be monitored by continuous fluorescence measurement (0.1 M NaPi, pH 8.0, 1% DMSO (v/v), 5-1000 nM enzyme, excitation wavelength 320 nm emission wavelength 420 nm, reaction volume 100 μl, 96-well micro titer plate, time scale 2 h). The respective model reaction is shown below (Formula 5). In Formula 5 DHy represents the respective D-stereospecific hydrolytic enzyme.
(§2) In addition, experiments were performed to investigate the effect of adding different additives in different concentrations based on the reaction mixture on the activity of D-stereospecific hydrolytic enzymes. The concentration of the respective additive was varied between 0 to 2.5 M. As additives, urea, guanidinium hydrochloride, NaCl and ß-mercaptoethanol (ß-ME) were used. The additives were added to the reaction mixture including the D-stereospecific hydrolytic enzyme and the peptide Abz-AAfFAAK(DNP)-OH. As D-stereospecific hydrolytic enzymes the D-stereospecific hydrolytic enzymes with SEQ ID No. 4, No. 6, No. 7, No. 8 and No. 9 were used.
(§3) The relative activity, in this case, is calculated by dividing the activity when adding an additive with a different concentration by the maximum activity of the respective D-stereospecific enzyme.
(§4) In Table 11, the concentration of additive (M) based on the reaction mixture at which 50% (*) or 10% (**) of the relative specific activity of the respective enzyme is still present is indicated.

[2] = biological target: T2, D-stereospecific hydrolytic enzyme, SEQ ID No. 6 (Bacillus thuringiensis, UniProt A0A1W6WPG2)
T2 construct: E. coli, purified; crystallized, P21
T2 sequence (A0A1W6WPG2 40-385): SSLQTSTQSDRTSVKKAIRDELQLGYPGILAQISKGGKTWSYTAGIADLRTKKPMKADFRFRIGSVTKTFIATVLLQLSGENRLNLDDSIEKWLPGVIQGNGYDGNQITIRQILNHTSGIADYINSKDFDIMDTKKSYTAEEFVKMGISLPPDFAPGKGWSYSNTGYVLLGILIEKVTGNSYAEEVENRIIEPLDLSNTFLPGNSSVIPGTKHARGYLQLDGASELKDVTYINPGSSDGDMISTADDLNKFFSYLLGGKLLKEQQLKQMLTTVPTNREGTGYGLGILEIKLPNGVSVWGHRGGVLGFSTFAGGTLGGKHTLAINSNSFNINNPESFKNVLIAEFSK
Procedure: as §1, §2, §3, §4

[3] = biological target: T3, D-stereospecific hydrolytic enzyme, SEQ ID No. 7 (Bacillus thuringiensis, UniProt A0A1W6WPK6)
T3 construct: E. coli, purified
T3 sequence (A0A1W6WPK6 41-389): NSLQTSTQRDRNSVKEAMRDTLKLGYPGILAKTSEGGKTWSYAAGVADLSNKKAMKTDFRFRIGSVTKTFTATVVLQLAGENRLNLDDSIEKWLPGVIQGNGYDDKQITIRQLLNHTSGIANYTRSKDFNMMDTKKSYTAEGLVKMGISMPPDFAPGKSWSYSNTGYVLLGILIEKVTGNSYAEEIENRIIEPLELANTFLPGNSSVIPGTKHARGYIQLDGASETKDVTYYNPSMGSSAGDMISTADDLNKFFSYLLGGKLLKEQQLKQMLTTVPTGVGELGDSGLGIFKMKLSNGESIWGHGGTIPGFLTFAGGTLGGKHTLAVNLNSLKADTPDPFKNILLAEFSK
Procedure: as §1, §2, §3, §4

[4] = biological target: T4, D-stereospecific hydrolytic enzyme, SEQ ID No. 8 (Bacillus thuringiensis, UniProt A0A1W6WYC6)
T4 construct: E. coli, purified
T4 sequence (A0A1W6WYC6 40-389): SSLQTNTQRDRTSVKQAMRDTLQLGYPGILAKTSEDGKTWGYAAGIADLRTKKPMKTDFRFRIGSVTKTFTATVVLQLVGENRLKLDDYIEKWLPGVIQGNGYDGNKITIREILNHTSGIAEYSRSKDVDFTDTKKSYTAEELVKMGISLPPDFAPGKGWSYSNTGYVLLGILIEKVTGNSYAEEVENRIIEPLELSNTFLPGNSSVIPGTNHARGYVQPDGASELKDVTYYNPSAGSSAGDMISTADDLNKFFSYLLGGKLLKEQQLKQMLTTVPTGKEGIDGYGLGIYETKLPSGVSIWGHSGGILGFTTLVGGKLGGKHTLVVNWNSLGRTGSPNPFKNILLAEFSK
Procedure: as §1, §2, §3, §4

[5] = biological target: T5, D-stereospecific hydrolytic enzyme, SEQ ID No. 9 (Bacillus thuringiensis, UniProt A0A1W6WP87)
T5 construct: E. coli, purified
T5 sequence (A0A1W6WP87 38-388): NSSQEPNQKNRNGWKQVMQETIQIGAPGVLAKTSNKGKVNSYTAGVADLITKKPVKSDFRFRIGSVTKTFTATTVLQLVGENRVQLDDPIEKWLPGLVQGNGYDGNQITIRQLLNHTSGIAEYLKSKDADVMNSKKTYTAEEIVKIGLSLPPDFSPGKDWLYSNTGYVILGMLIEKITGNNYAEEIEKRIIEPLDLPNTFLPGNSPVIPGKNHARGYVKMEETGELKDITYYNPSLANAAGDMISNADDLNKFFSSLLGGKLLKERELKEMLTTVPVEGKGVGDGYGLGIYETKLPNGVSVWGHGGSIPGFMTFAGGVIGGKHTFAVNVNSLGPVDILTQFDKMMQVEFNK
Procedure: as §1, §2, §3, §4

T1 sequence (P94288 entry or part of it): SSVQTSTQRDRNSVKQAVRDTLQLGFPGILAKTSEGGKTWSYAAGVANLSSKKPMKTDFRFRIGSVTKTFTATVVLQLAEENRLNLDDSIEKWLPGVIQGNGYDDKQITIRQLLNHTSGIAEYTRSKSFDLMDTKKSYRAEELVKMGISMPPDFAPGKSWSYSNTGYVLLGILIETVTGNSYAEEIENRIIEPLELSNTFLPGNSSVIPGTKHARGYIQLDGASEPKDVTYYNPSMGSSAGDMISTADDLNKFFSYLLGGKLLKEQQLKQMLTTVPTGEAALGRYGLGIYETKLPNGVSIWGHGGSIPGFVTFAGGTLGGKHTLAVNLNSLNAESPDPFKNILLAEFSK

Row | Structure (SMILES) | concentration of additive at which 10% of the relative specific activity is still present [1] | concentration of additive at which 10% of the relative specific activity is still present [2] | concentration of additive at which 10% of the relative specific activity is still present [3] | concentration of additive at which 10% of the relative specific activity is still present [4] | concentration of additive at which 10% of the relative specific activity is still present [5]
1 | N=C(N)N [GdmCl, guanidinium hydrochloride] | 1.00 M | 0.50 M | 0.50 M | 1.00 M | 1.25 M
2 | NC(N)=O [urea] | 1.25 M | 2.00 M | 1.50 M | 2.00 M | 2.25 M
3 | OCCS [β-ME, ß-mercaptoethanol] | <0.25 M | 0.50 M | 0.50 M | 0.50 M | 0.50 M
